# Experimental data taken from patent EP0525960B1, “Use of rapamycin for the treatment of adult T-cell leukemia/lymphoma” (AMERICAN HOME PRODUCTS CORPORATION, priority 1991, dated 1993).
# Key:
# Type in all cases: cell-based
# [1] = test system: 31009; test: Inhibition of ATL cell proliferation (tritiated thymidine incorporation); settings: Homo sapiens, 24 hours, read-out: PERCENT INHIBITION OF ATL CELL PROLIFERATION
# Text: (§1) ATL cell lines were established according to known literature procedures. ATL5S, ATL3I, and ATL1K were established according to the method of Hoshino [Proc. Natl. Acad. Sci, 80: 6061(1983)]. The cell lines 31008, 31009, 31016 and AT(EGG) were established from peripheral blood of HTLV-1 infected individuals via co-culture with cord blood lymphocytes. The cell line MALN was isolated from lymphoid tumor tissue of an HTLV-1 infected ATL patient seen at Jackson Memorial/University of Miami Medical Center. [Harrington, W.J., Jr., J. Acq. Imm. Def. Dis., 4: 284 (1991)]. The primary cultures BL and GP were initiated from peripheral blood of ATL patients. The MALN, BL, and GP cell lines were initiated without co-cultivation.
# (§2) Cells were adjusted to a concentration of 1x10⁶ cells/mL in RPMI 1640 with 15% fetal bovine serum and were supplemented with 50 U/mL penicillin, 50 µg/mL streptomycin, and 2 mM glutamine. […] Drug concentrations evaluated ranged from 1µM to 100 fM. Cultures were incubated at 37°C, 5% CO₂ for 24 hours followed by a 4 hr. pulse with 0.5 µCi of tritiated thymidine. Thymidine incorporation was measured by liquid scintillation counting, and the results expressed in counts per minute (cpm).
# [2] = test system: ATL5S; test: as above; settings: Homo sapiens, 24 hours, read-out: PERCENT INHIBITION OF ATL CELL PROLIFERATION
# Text: as §1, §2
# [3] = test system: ten human HTLV-1 transformed T-cell lines; test: Inhibition of ATL cell proliferation, summary over the panel of ten cell lines; settings: in 4 of the cell lines at a concentration of 1 nM, read-out: reduction in proliferation
# Experimental: (§3) The effect of rapamycin on ATL was established in an in vitro standard pharmacological test procedure using ten human HTLV-1 transformed T-cell lines cultured from ATL patients. These cell lines are presently the best models for ATL in humans. Cyclosporin A (CsA) was also evaluated for the purpose of comparison. The procedure used and results obtained are described below.
# as §1, with “The MALN, BL, and GP cell lines were initiated without co-cultivation.” left out
# as §2, with “Cultures were incubated at 37°C, 5% CO₂ for 24 hours followed by a 4 hr. pulse with 0.5 µCi of tritiated thymidine.” left out, “(cpm). […]” for “(cpm).”
# [4] = test system: 31008; test: Inhibition of ATL cell proliferation (tritiated thymidine incorporation); settings: Homo sapiens, 24 hours, read-out: PERCENT INHIBITION OF ATL CELL PROLIFERATION
# Experimental: as §3, §1
# as §2, with “(cpm). The results obtained from the mean of four evaluations at each concentration were compared with control values to determine percent inhibition. The following formula was used to calculate the percent inhibition: Percent Inhibition =(cpm[no drug] - cpm[drug])/(cpm[no drug])x 100 [formula] The percent inhibition obtained with rapamycin is shown in the following table.” for “(cpm).”
# [5] = test system: ATL3I; test: as above; settings: Homo sapiens, 24 hours, read-out: PERCENT INHIBITION OF ATL CELL PROLIFERATION
# Experimental: as §3, §1
# as §2, with “(cpm). The results obtained from the mean of four evaluations at each concentration were compared with control values to determine percent inhibition. The following formula was used to calculate the percent inhibition: Percent Inhibition =(cpm[no drug] - cpm[drug])/(cpm[no drug])x 100 [formula] The percent inhibition obtained with rapamycin is shown in the following table.” for “(cpm).”
# [6] = test system: GP; test: as above; settings: Homo sapiens, 24 hours, read-out: PERCENT INHIBITION OF ATL CELL PROLIFERATION
# Experimental: as §3, §1
# as §2, with “(cpm). The results obtained from the mean of four evaluations at each concentration were compared with control values to determine percent inhibition. The following formula was used to calculate the percent inhibition: Percent Inhibition =(cpm[no drug] - cpm[drug])/(cpm[no drug])x 100 [formula] The percent inhibition obtained with rapamycin is shown in the following table.” for “(cpm).”
# [7] = test system: ATL1K; test: as above; settings: Homo sapiens, 24 hours, read-out: PERCENT INHIBITION OF ATL CELL PROLIFERATION
# Experimental: as §3, §1
# as §2, with “(cpm). The results obtained from the mean of four evaluations at each concentration were compared with control values to determine percent inhibition. The following formula was used to calculate the percent inhibition: Percent Inhibition =(cpm[no drug] - cpm[drug])/(cpm[no drug])x 100 [formula] The percent inhibition obtained with rapamycin is shown in the following table.” for “(cpm).”
# [8] = test system: BL; test: as above; settings: Homo sapiens, 24 hours, read-out: PERCENT INHIBITION OF ATL CELL PROLIFERATION
# Experimental: as §3, §1
# as §2, with “(cpm). The results obtained from the mean of four evaluations at each concentration were compared with control values to determine percent inhibition. The following formula was used to calculate the percent inhibition: Percent Inhibition =(cpm[no drug] - cpm[drug])/(cpm[no drug])x 100 [formula] The percent inhibition obtained with rapamycin is shown in the following table.” for “(cpm).”
# [9] = test system: ATEGG; test: as above; settings: Homo sapiens, 24 hours, read-out: PERCENT INHIBITION OF ATL CELL PROLIFERATION
# Experimental: as §3, §1
# as §2, with “(cpm). The results obtained from the mean of four evaluations at each concentration were compared with control values to determine percent inhibition. The following formula was used to calculate the percent inhibition: Percent Inhibition =(cpm[no drug] - cpm[drug])/(cpm[no drug])x 100 [formula] The percent inhibition obtained with rapamycin is shown in the following table.” for “(cpm).”
# [10] = test system: 31016; test: as above; settings: Homo sapiens, 24 hours, read-out: PERCENT INHIBITION OF ATL CELL PROLIFERATION
# Experimental: as §3, §1
# as §2, with “(cpm). The results obtained from the mean of four evaluations at each concentration were compared with control values to determine percent inhibition. The following formula was used to calculate the percent inhibition: Percent Inhibition =(cpm[no drug] - cpm[drug])/(cpm[no drug])x 100 [formula] The percent inhibition obtained with rapamycin is shown in the following table.” for “(cpm).”
# [11] = test system: MALN; test: as above; settings: Homo sapiens, 24 hours, read-out: PERCENT INHIBITION OF ATL CELL PROLIFERATION
# Experimental: as §3, §1
# as §2, with “(cpm). The results obtained from the mean of four evaluations at each concentration were compared with control values to determine percent inhibition. The following formula was used to calculate the percent inhibition: Percent Inhibition =(cpm[no drug] - cpm[drug])/(cpm[no drug])x 100 [formula] The percent inhibition obtained with rapamycin is shown in the following table.” for “(cpm).”
structure (smiles),measurement,setting,value
CO[C@H]1C[C@@H]2CC[C@@H](C)[C@@](O)(O2)C(=O)C(=O)N2CCCC[C@H]2C(=O)O[C@H]([C@H](C)C[C@@H]2CC[C@@H](O)[C@H](OC)C2)CC(=O)[C@H](C)/C=C(\C)[C@@H](O)[C@@H](OC)C(=O)[C@H](C)C[C@H](C)/C=C/C=C/C=C/1C [Rapamycin],inhibition at 1 pM,[1]; Rapamycin Concentration 1 pM,59%
same,inhibition at 10 pM,[1]; Rapamycin Concentration 10 pM,47%
same,inhibition at 0.0001 µM,[1]; Rapamycin Concentration 100 pM,61%
same,inhibition at 0.001 µM,[1]; Rapamycin Concentration 1 nM,68%
same,inhibition at 0.01 µM,[1]; Rapamycin Concentration 10 nM,67%
same,inhibition at 0.1 µM,[1]; Rapamycin Concentration 100 nM,70%
same,inhibition at 1 µM,[1]; Rapamycin Concentration 1 µM,71%
same,inhibition at 100 fM,[1]; Rapamycin Concentration 100 fM,60%
same,inhibition at 1 pM,[2]; Rapamycin Concentration 1 pM,14%
same,inhibition at 10 pM,[2]; Rapamycin Concentration 10 pM,38%
same,inhibition at 0.0001 µM,[2]; Rapamycin Concentration 100 pM,47%
same,inhibition at 0.001 µM,[2]; Rapamycin Concentration 1 nM,48%
same,inhibition at 0.01 µM,[2]; Rapamycin Concentration 10 nM,49%
same,inhibition at 0.1 µM,[2]; Rapamycin Concentration 100 nM,58%
same,inhibition at 1 µM,[2]; Rapamycin Concentration 1 µM,59%
same,inhibition at 100 fM,[2]; Rapamycin Concentration 100 fM,36%
same,inhibition at 0.001 µM,[3],50%
same,inhibition at 1 pM,[4]; Rapamycin Concentration 1 pM,30%
same,inhibition at 10 pM,[4]; Rapamycin Concentration 10 pM,31%
same,inhibition at 0.0001 µM,[4]; Rapamycin Concentration 100 pM,45%
same,inhibition at 0.001 µM,[4]; Rapamycin Concentration 1 nM,54%
same,inhibition at 0.01 µM,[4]; Rapamycin Concentration 10 nM,58%
same,inhibition at 0.1 µM,[4]; Rapamycin Concentration 100 nM,68%
same,inhibition at 1 µM,[4]; Rapamycin Concentration 1 µM,69%
same,inhibition at 100 fM,[4]; Rapamycin Concentration 100 fM,29%
same,inhibition at 1 pM,[5]; Rapamycin Concentration 1 pM,11%
same,inhibition at 10 pM,[5]; Rapamycin Concentration 10 pM,6%
same,inhibition at 0.0001 µM,[5]; Rapamycin Concentration 100 pM,11%
same,inhibition at 0.001 µM,[5]; Rapamycin Concentration 1 nM,18%
same,inhibition at 0.01 µM,[5]; Rapamycin Concentration 10 nM,15%
same,inhibition at 0.1 µM,[5]; Rapamycin Concentration 100 nM,17%
same,inhibition at 1 µM,[5]; Rapamycin Concentration 1 µM,28%
same,inhibition at 100 fM,[5]; Rapamycin Concentration 100 fM,7%
same,inhibition at 1 pM,[6]; Rapamycin Concentration 1 pM,20%
same,inhibition at 10 pM,[6]; Rapamycin Concentration 10 pM,14%
same,inhibition at 0.0001 µM,[6]; Rapamycin Concentration 100 pM,39%
same,inhibition at 0.001 µM,[6]; Rapamycin Concentration 1 nM,42%
same,inhibition at 0.01 µM,[6]; Rapamycin Concentration 10 nM,46%
same,inhibition at 0.1 µM,[6]; Rapamycin Concentration 100 nM,46%
same,inhibition at 1 µM,[6]; Rapamycin Concentration 1 µM,54%
same,inhibition at 100 fM,[6]; Rapamycin Concentration 100 fM,23%
same,inhibition at 1 pM,[7]; Rapamycin Concentration 1 pM,15%
same,inhibition at 10 pM,[7]; Rapamycin Concentration 10 pM,12%
same,inhibition at 0.0001 µM,[7]; Rapamycin Concentration 100 pM,23%
same,inhibition at 0.001 µM,[7]; Rapamycin Concentration 1 nM,26%
same,inhibition at 0.01 µM,[7]; Rapamycin Concentration 10 nM,18%
same,inhibition at 0.1 µM,[7]; Rapamycin Concentration 100 nM,32%
same,inhibition at 1 µM,[7]; Rapamycin Concentration 1 µM,19%
same,inhibition at 100 fM,[7]; Rapamycin Concentration 100 fM,15%
same,inhibition at 1 pM,[8]; Rapamycin Concentration 1 pM,56%
same,inhibition at 10 pM,[8]; Rapamycin Concentration 10 pM,55%
same,inhibition at 0.0001 µM,[8]; Rapamycin Concentration 100 pM,65%
same,inhibition at 0.001 µM,[8]; Rapamycin Concentration 1 nM,73%
same,inhibition at 0.01 µM,[8]; Rapamycin Concentration 10 nM,76%
same,inhibition at 0.1 µM,[8]; Rapamycin Concentration 100 nM,79%
same,inhibition at 1 µM,[8]; Rapamycin Concentration 1 µM,80%
same,inhibition at 100 fM,[8]; Rapamycin Concentration 100 fM,51%
same,inhibition at 1 pM,[9]; Rapamycin Concentration 1 pM,48%
same,inhibition at 10 pM,[9]; Rapamycin Concentration 10 pM,44%
same,inhibition at 0.0001 µM,[9]; Rapamycin Concentration 100 pM,49%
same,inhibition at 0.001 µM,[9]; Rapamycin Concentration 1 nM,53%
same,inhibition at 0.01 µM,[9]; Rapamycin Concentration 10 nM,45%
same,inhibition at 0.1 µM,[9]; Rapamycin Concentration 100 nM,60%
same,inhibition at 1 µM,[9]; Rapamycin Concentration 1 µM,58%
same,inhibition at 100 fM,[9]; Rapamycin Concentration 100 fM,44%
same,inhibition at 1 pM,[10]; Rapamycin Concentration 1 pM,50%
same,inhibition at 10 pM,[10]; Rapamycin Concentration 10 pM,47%
same,inhibition at 0.0001 µM,[10]; Rapamycin Concentration 100 pM,49%
same,inhibition at 0.001 µM,[10]; Rapamycin Concentration 1 nM,48%
same,inhibition at 0.01 µM,[10]; Rapamycin Concentration 10 nM,49%
same,inhibition at 0.1 µM,[10]; Rapamycin Concentration 100 nM,56%
same,inhibition at 1 µM,[10]; Rapamycin Concentration 1 µM,59%
same,inhibition at 100 fM,[10]; Rapamycin Concentration 100 fM,44%
same,inhibition at 1 pM,[11]; Rapamycin Concentration 1 pM,36%
same,inhibition at 10 pM,[11]; Rapamycin Concentration 10 pM,26%
same,inhibition at 0.0001 µM,[11]; Rapamycin Concentration 100 pM,37%
same,inhibition at 0.001 µM,[11]; Rapamycin Concentration 1 nM,43%
same,inhibition at 0.01 µM,[11]; Rapamycin Concentration 10 nM,41%
same,inhibition at 0.1 µM,[11]; Rapamycin Concentration 100 nM,54%
same,inhibition at 1 µM,[11]; Rapamycin Concentration 1 µM,55%
same,inhibition at 100 fM,[11]; Rapamycin Concentration 100 fM,36%
